Active and inactive are the calls of the source.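 The calls were made as follows: active = half-maximal concentration for the rise in caspase light signal at or below ten times the top tested dose; inconclusive = flat fit between 30% and 70% activity, or unreliable curve fit; inactive = the rest.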
Tested on: MEF A1-2A-BIM cells, caspase 3/7 luminescence, 3 h
Experiment: caspase activation in A1-2A-BIM MEF cells, dose response, A1 inhibitor project, cell-based, luminescence, retest (AID 2765)

Row | Structure (SMILES) | EC50
1 | CN(C)CCCN(C(=O)c1ccc([N+](=O)[O-])s1)c1nc2cc3c(cc2s1)OCCO3 | > 16 µM (inactive)
2 | CS(=O)(=O)c1ncc(Cl)c(C(=O)Nc2ccc(N3CCOCC3)cc2)n1 | > 35 µM (inactive)
3 | Cc1ccc(C)c(NC(=O)CN(C)C(=O)c2ccc(-c3cccc(C(F)(F)F)c3)o2)c1 | > 35 µM (inactive)
4 | CN(Cc1cnc2nc(N)nc(N)c2n1)c1ccc(C(=O)N[C@@H](CCC(=O)O)C(=O)O)cc1 | > 35 µM (inactive)
5 | NC(=S)NNC(=O)/C(=C/c1ccc(Br)cc1)NC(=O)c1ccccc1 | > 35 µM (inactive)
6 | CC1=CC(=O)C(C(C)C)=C/C1=N/OS(=O)(=O)c1ccccc1 | 9.28 µM
7 | Cc1ccc2c(C(=O)N3CCN(c4ccccc4)CC3)cc(-c3cccnc3)nc2c1C | > 35 µM (inactive)
8 | Cc1ccc(CNC(=O)CCS(=O)(=O)c2ccc3c(c2)CC(C)N3C(=O)C2CC2)o1 (configuration not stated) | > 35 µM (inactive)
9 | Cc1cccc(C)c1NC(=O)CSc1nc(C)c(CC(=O)c2ccc(Br)cc2)c(C)c1C#N | 30.2 µM
10 | Fc1ccc(NC(=S)NCc2ccccc2Cl)cc1 | > 35 µM (inactive)
11 | CN(c1ccccc1)c1ccc(/C=C/[N+](=O)[O-])cc1 | 12.6 µM
12 | O=C1Nc2ncccc2OC1CCO (configuration not stated) | > 35 µM (inactive)
13 | CC(=O)N1CCN(C2c3cccc4cccc(c34)C2NS(=O)(=O)c2ccccc2)CC1 (configuration not stated) | > 35 µM (inactive)
14 | CCC(=O)N/C(N)=N/c1nc(C)c2cc(C)c(C)cc2n1 | > 35 µM (inactive)
15 | CCc1cccc(NC(=O)C2CCN(S(=O)(=O)c3ccc4c(c3)NC(=O)CO4)CC2)c1 | > 35 µM (inactive)
16 | Cc1ccc(NC(=O)Cn2c(=O)cnc3ccccc32)cc1S(=O)(=O)N1CCOCC1 | > 35 µM (inactive)
17 | O=C(/C=C/c1ccc(Br)cc1)c1ccc(NC2=NCCCS2)cc1 | > 35 µM (inactive)
18 | Cc1ccccc1/C=C/C(=O)c1ccc([N+](=O)[O-])o1 | > 35 µM (inactive)
19 | CC(=O)Nc1ccc(/C(C)=N/Nc2nc(Nc3ccccc3)nc(N3CCOCC3)n2)cc1 | > 35 µM (inactive)
20 | O=C(c1ccccc1)c1n[nH]c(-c2ccccc2)cc1=O | > 35 µM (inactive)
21 | CC(C)(C)NC(=O)NC(=O)COC(=O)CNS(=O)(=O)/C=C/c1ccccc1 | > 35 µM (inactive)
22 | Cc1ncc([N+](=O)[O-])n1Cc1cccc2ccccc12 | > 35 µM (inactive)
23 | CCCC(=O)Nc1ncnc2c1ncn2[C@@H]1O[C@@H]2OP(=O)(O)OC[C@H]2[C@H]1OC(=O)CCC | > 35 µM (inactive)

Row | Structure (SMILES) | EC50
24 | COCCCNC(=O)c1cccc(S(=O)(=O)N2CC3(C)CC2CC(C)(C)C3)c1 (configuration not stated) | > 35 µM (inactive)
25 | Cc1ccccc1[C@]1(C)ON(c2ccccc2C(F)(F)F)C1=O | > 35 µM (inactive)
26 | CCS(=O)(=O)c1ncc(Cl)c(C(=O)Nc2ccc(S(=O)(=O)N3CCC(C)CC3)cc2)n1 | > 35 µM (inactive)
27 | CCOC(=O)c1c(C)[nH]c(C)c1C(=O)CSc1nc2ccccc2n1CCOC | > 35 µM (inactive)
28 | Cc1ccc(OCC(O)CN2CCN(CCO)CC2)c(C)c1 (configuration not stated) | > 35 µM (inactive)
29 | O=C(Nc1ccc2oc(-c3ccccc3F)nc2c1)c1ccccc1F | > 35 µM (inactive)
30 | O=C(NCc1ccc2c(c1)OCO2)C1CCN(c2ncccn2)CC1 | > 35 µM (inactive)
31 | CCCOC(=O)c1[nH]c2c(c1C)C(=O)CC(c1cccs1)C2 (configuration not stated) | > 35 µM (inactive)
32 | CN1CCN(CCNC(=O)Nc2ccc(Cl)cc2)CC1 | > 35 µM (inactive)
33 | COc1ccc(-c2csc(NC(=O)Cc3ccccc3F)n2)c(OC)c1 | > 35 µM (inactive)
34 | CCOC(=O)[C@H]1[C@H]2COc3ccc(OC)cc3[C@@H]2N2C(=O)CN(CC3CCCO3)C(=O)[C@@]12C (some centres not stated) | > 35 µM (inactive)
35 | Cc1ccc(S(=O)(=O)N2CCCC2)cc1C(=O)NCc1ccccc1CN1CCCC1 | > 35 µM (inactive)
36 | O=C(O)C(CCCCNS(=O)(=O)c1ccc(F)cc1)NS(=O)(=O)c1ccc(F)cc1 (configuration not stated) | > 35 µM (inactive)
37 | COc1cc(NS(=O)(=O)c2cc(C(=O)NCCc3ccccn3)ccc2OC)cc(OC)c1 | > 35 µM (inactive)
38 | CC(C)CCN1NC2(CCCC(C)C2)NC1=S (configuration not stated) | > 35 µM (inactive)
39 | C[C@H](CO)N1C[C@H](C)[C@@H](CN(C)CC2CCCCC2)Oc2c(NS(=O)(=O)c3cccs3)cccc2C1=O | > 35 µM (inactive)
40 | CCCCC1CCC(C(=O)N(CC(C)C)c2c(N)n(Cc3ccccc3)c(=O)[nH]c2=O)CC1 (configuration not stated) | 5.65 µM
41 | CCc1cc(-c2[nH]ncc2-c2ccc(OC)cc2)c(O)cc1O | > 35 µM (inactive)
42 | CCOC(=O)CNC(=O)N1CCCC(CNS(=O)(=O)Cc2ccccc2)C1 (configuration not stated) | > 35 µM (inactive)
43 | COc1ccc(OC[C@@H](O)CNC(=O)c2cccc3c2C(=O)c2ccc(-c4ccc(F)cc4OCc4ccccc4)cc2S3(=O)=O)cc1 | > 35 µM (inactive)
44 | Cc1ccc(NC(=O)CN(C)S(=O)(=O)c2cnc[nH]2)c(C)c1 | > 35 µM (inactive)
45 | Cc1ccc(/C=C/C(=O)c2ccc([N+](=O)[O-])o2)cc1 | > 35 µM (inactive)
46 | CN(CCc1ccccc1)C(=O)c1cccc(NC(=O)Cc2cccc([N+](=O)[O-])c2)c1 | > 35 µM (inactive)

Row | Structure (SMILES) | EC50
47 | Cc1ccc(-c2csc(N=C(N)N)n2)cc1 | > 35 µM (inactive)
48 | CC1Cc2ccccc2N1C(=O)c1ccc2c(c1)nnn2C (configuration not stated) | > 35 µM (inactive)
49 | CCOc1ccc(N2C(=O)CN=C2Nc2ccccc2F)cc1 | > 35 µM (inactive)
50 | O=C(Nc1cccc(Cl)c1)c1ccc(OC(=S)N2CCOCC2)cc1 | > 35 µM (inactive)
51 | COc1ccc(C(=O)Nc2ccc(NC(C)=O)cc2)cc1S(=O)(=O)N1CCCCC1C (configuration not stated) | > 35 µM (inactive)
52 | O=C(N/N=C\c1cccc(Cl)c1)c1ccc(Cn2cccn2)o1 | > 35 µM (inactive)
53 | Cc1noc(C)c1S(=O)(=O)N(C)C[C@H]1Oc2ccc(NC(=O)CCC(F)(F)F)cc2C(=O)N([C@H](C)CO)C[C@@H]1C | > 35 µM (inactive)
54 | CC1CCc2nn(CC(=O)NCCCN3CCCC3=O)cc2C1 (configuration not stated) | > 35 µM (inactive)
55 | O=C1C(=O)N(Cc2ccco2)C(c2cccs2)/C1=C(\O)c1cccc([N+](=O)[O-])c1 (configuration not stated) | > 35 µM (inactive)
56 | CCOC(=O)C1=C(C)N(CCCC(=O)O)C(=O)NC1c1ccccc1OS(=O)(=O)c1ccc(C)cc1 (configuration not stated) | > 35 µM (inactive)
57 | COc1cc(C(=O)Nc2cc(-c3ccccc3)[nH]n2)cc(OC)c1OC | > 35 µM (inactive)
58 | CC(C)CC(=O)Nc1ccc2c(c1)OCO2 | > 35 µM (inactive)
59 | O=C(NCC1CCCO1)C1CCN(S(=O)(=O)c2ccc(Br)cc2)CC1 (configuration not stated) | > 35 µM (inactive)
60 | CCCCn1nc(C)c(C(=O)O)c1Cl | > 35 µM (inactive)
61 | COc1cc(NC(=O)c2ccc(C)cc2C)ccc1NC(=O)c1cc2ccccc2o1 | 26.7 µM
62 | CN(C)C/C=C(\c1ccc(Br)cc1)c1cccnc1 | > 35 µM (inactive)
63 | COC(=O)c1cc(CNC(=O)CC(C)c2ccccc2)ccc1OC (configuration not stated) | > 35 µM (inactive)
64 | CCOC(=O)c1c(NC(=O)C2C3C=CC(C3)C2C(=O)O)sc2c1CCCC2 (configuration not stated) | > 35 µM (inactive)
65 | CN(C)CCCN(C(=O)c1cc2cc([N+](=O)[O-])ccc2s1)c1nc2cc3c(cc2s1)OCCO3 | > 35 µM (inactive)
66 | COc1ccc(S(=O)(=O)N2CC(O)CC2C(=O)OCc2nc3sc(C)c(C)c3c(=O)[nH]2)cc1 (configuration not stated) | > 35 µM (inactive)
67 | COc1ccc(C(CNC(=O)c2cc(S(=O)(=O)NCc3ccco3)ccc2C)N(C)C)cc1 (configuration not stated) | > 35 µM (inactive)
68 | CC(C)c1cccc(-c2ccc3c(c2)S(=O)(=O)c2cccc(C(=O)NC4CCCC4)c2C3=O)c1 | > 35 µM (inactive)
69 | CN(CC(=O)Nc1ccccc1Cl)CC(=O)Nc1cccc2ccccc12 | > 35 µM (inactive)

Row | Structure (SMILES) | EC50
70 | O=C(O)c1cn(-c2ccccc2)c(=O)c2ccccc12 | > 35 µM (inactive)
71 | COc1ccc(C(=O)NCc2nnc(SCC(=O)NCc3ccco3)o2)cc1OC | > 35 µM (inactive)
72 | CCOC(=O)Cc1csc(/N=C/c2c(O)n(-c3ccc(C)c(C)c3)c(=O)c3ccccc23)n1 | 9.23 µM
73 | CCc1cc(=O)oc2cc(C)cc(OCC(=O)NC3CCN(Cc4ccccc4)CC3)c12 | > 35 µM (inactive)
74 | COc1ccccc1NC(=O)CC1COc2ccccc2O1 (configuration not stated) | > 35 µM (inactive)
75 | O=C(CN1C(=O)NC2(CCCCCC2)C1=O)Nc1cccc(F)c1 | > 35 µM (inactive)
76 | O=C(CSc1ccc(F)cc1)Nc1ccc(C2SCCS2)cc1 | > 35 µM (inactive)
77 | COc1cc(SC#N)ccc1N=Cc1c(C)[nH]n(-c2ccc(C)cc2)c1=O | > 35 µM (inactive)
78 | Cc1cc(=O)n2nc(N3CCCC(C(=O)NCCc4ccc(Cl)cc4)C3)sc2n1 (configuration not stated) | > 35 µM (inactive)
79 | COc1ccc(-c2cc3ccccc3oc2=O)cc1NC(=S)NC(=O)c1ccc2c(c1)OCCO2 | 6.8 µM
80 | CCOc1cc(/C=C\[N+](=O)[O-])ccc1OCC(=O)Nc1ccccc1C | 3.67 µM
81 | CCc1ccc2nc(N(CCCN(C)C)C(=O)c3ccc(S(=O)(=O)N4CCc5ccccc5C4)cc3)sc2c1 | > 35 µM (inactive)
82 | O=C(C1=C[C@H](c2coc3ccccc3c2=O)C[C@H](OCc2ccc(CO)cc2)O1)N1CCN(Cc2ccccc2)CC1 | > 35 µM (inactive)
83 | CC(C)CCNC(=O)c1cc(-c2ccncc2)nc2ccc(S(=O)(=O)N3CCOCC3)cc12 | > 35 µM (inactive)
84 | CC1(C)C[C@H](O)[C@]2(CO)[C@H](O)C[C@]3(C)C(=CCC4[C@@]5(C)CC[C@H](O)C(C)(C)C5CC[C@]43C)[C@@H]2C1 (some centres not stated) | > 35 µM (inactive)
85 | Cc1cc(Br)c(OCc2ccc(C(=O)N/N=C/c3ccc[nH]3)cc2)c(Br)c1 | 33.8 µM
86 | COc1cccc(C(=O)NCC(=O)N/N=C/c2ccc(OC(=O)c3cccs3)c(OC)c2)c1 | > 35 µM (inactive)
87 | CCCNC(=O)N1[C@H]2CC[C@@H]1C(C(=O)OC)=C(c1c(C)noc1C)C2 | > 35 µM (inactive)
88 | CCN(CC)CCSc1nnc2c3ccccc3n(Cc3ccccc3)c2n1 | > 35 µM (inactive)
89 | N#Cc1cc(C(=O)c2cc(Br)ccc2O)cn(C2CC2)c1=O | > 35 µM (inactive)
90 | Cc1cc(S(=O)(=O)N2CCCOC2CNC(=O)C(=O)NCc2ccco2)ccc1F (configuration not stated) | > 35 µM (inactive)
91 | CO/N=C/C(C#N)=C/c1cc(C(=O)c2ccccc2)cn1C | > 35 µM (inactive)
92 | CC(=O)Nc1ncnc2c1c(-c1ccc(Cl)cc1)nn2C(C)(C)C | > 35 µM (inactive)

— PubChem BioAssay AID2765 (Broad Institute, 2010)
